Test systems include SF-295 CNS; MALME-3M melanoma; SF-539 CNS; NCI-H460 lung; UO-31 renal; SW-620 colon; K-562 leukemia; A549 NSCLC; MDA-MB-231 breast; MDA-N.
Assay in all cases: inhibition of tumour cell growth, NCI panel, 48 h

The structures appear in SMILES notation.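 Tested at 5 concentrations; 48 h exposure; 96-well plates; endpoints linearly interpolated, else capped at highest concentration. TGI is the concentration that stops growth completely.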 A value given as a limit tells only on which side of the number the result lay.

As for `Cc1c2cccc-2ccc2c3ccccc3n(C(=O)c3ccc(Cl)cc3)c12`, the TGI with SF-295 CNS, in the assay on MALME-3M melanoma, with SF-539 CNS, in the assay on NCI-H460 lung, in the assay on UO-31 renal and in the assay on SW-620 colon was more than 100 µM in each case. For the same compound, the TGI in the assay on K-562 leukemia, with A549 NSCLC and in the assay on MDA-MB-231 breast was more than 100 µM in each case.
Regarding `C[C@H](C1CC2(C)OC2(C)C(=O)O1)[C@H]1CC[C@H]2[C@@H]3[C@@H]4O[C@@H]4[C@@]4(O)CC=CC(=O)[C@]4(C)[C@H]3CC[C@]12C` (stereo not given in full), the TGI with SF-295 CNS, in the assay on NCI-H460 lung, in the assay on UO-31 renal, in the assay on SW-620 colon, with K-562 leukemia and in the assay on A549 NSCLC was more than 50 µM each time. Further, the TGI with MDA-MB-231 breast and with MDA-N was more than 50 µM throughout.
For `CC1(C)Oc2ccc3c(=O)cc(-c4ccccc4)oc3c2C1C(=O)O` (stereo not given), the TGI with SF-295 CNS, in the assay with MALME-3M melanoma, in the assay with SF-539 CNS, with K-562 leukemia, with A549 NSCLC and in the assay with MDA-MB-231 breast was more than 100 µM each time. The same compound gave a TGI with MDA-N of more than 100 µM.
With `Cc1ccc(S(=O)(=O)NC(=O)C2=C3SCCN3C(=O)N(S(=O)(=O)c3ccc(C)cc3)C2c2ccccc2)cc1` (stereo not given), the TGI is more than 100 µM in the assay with SF-295 CNS; more than 100 µM in the assay with MALME-3M melanoma; 61.6 µM in the assay on SF-539 CNS; more than 100 µM in the assay on NCI-H460 lung; more than 100 µM in the assay on UO-31 renal; more than 100 µM with SW-620 colon. Also, the TGI with K-562 leukemia, with A549 NSCLC and with MDA-MB-231 breast was more than 100 µM each time.
For the compound `Cn1c(=O)sc2cc(C(=S)N3CCCCC3)ccc21`, the TGI in the assay on SF-295 CNS is more than 100 µM; in the assay on MALME-3M melanoma, 55.4 µM; in the assay with SF-539 CNS it was more than 100 µM; with NCI-H460 lung it was more than 100 µM; in the assay with SW-620 colon, more than 100 µM; with K-562 leukemia, more than 100 µM. Also, the TGI in the assay with MDA-MB-231 breast and in the assay on MDA-N was more than 100 µM in each case.
Take `CCN(CC)C(=O)CCN1CC1`: the TGI with SF-295 CNS, with MALME-3M melanoma, in the assay with SF-539 CNS, in the assay on NCI-H460 lung, in the assay with UO-31 renal and in the assay with K-562 leukemia was more than 10 µM in each case. Moreover, the TGI with A549 NSCLC, in the assay on MDA-MB-231 breast and in the assay on MDA-N was more than 10 µM each time.
As to `CCN(CC)C(=O)Cn1c2c(c3ccccc31)CCCC2`, the TGI in the assay on SF-295 CNS, in the assay with MALME-3M melanoma, in the assay on SF-539 CNS, with NCI-H460 lung, in the assay on UO-31 renal and in the assay with SW-620 colon was more than 100 µM each time. The TGI in the assay with K-562 leukemia, with A549 NSCLC and in the assay on MDA-N was more than 100 µM throughout.
As to `O=[N+]([O-])/C(C(Cl)=C(Cl)Cl)=C(/Nc1cccc2cccnc12)n1nnc2ccccc21`, the TGI is 42.2 µM in the assay with SF-295 CNS; 19.7 µM with MALME-3M melanoma; 38.2 µM with SF-539 CNS; more than 100 µM in the assay on NCI-H460 lung; 29.9 µM in the assay on UO-31 renal; 31.3 µM in the assay on SW-620 colon. Further, the TGI in the assay with K-562 leukemia is more than 100 µM; in the assay on A549 NSCLC, more than 100 µM; in the assay on MDA-N, 27.2 µM.
As for `COC1=CC(=O)N(C)C(O)C1(C#N)OC1OC(CO)C(O)C(O)C1O` (stereo not given), the TGI in the assay on SF-295 CNS is more than 100 µM; with SF-539 CNS, more than 100 µM; in the assay on NCI-H460 lung it was more than 100 µM; with UO-31 renal it was more than 100 µM; with SW-620 colon, more than 100 µM; in the assay on K-562 leukemia, more than 10 µM. In addition, the TGI with A549 NSCLC, in the assay with MDA-MB-231 breast and with MDA-N was more than 100 µM in each case.
Regarding `NC(=S)NC/C=C/Cl`, the TGI in the assay with SF-295 CNS, in the assay on MALME-3M melanoma, in the assay with NCI-H460 lung, in the assay with UO-31 renal, in the assay with SW-620 colon and in the assay on K-562 leukemia was more than 100 µM each time. Besides, the TGI in the assay with A549 NSCLC, in the assay on MDA-MB-231 breast and with MDA-N was more than 100 µM throughout.
As for `COc1cc(Oc2nc3cc(F)c(F)cc3nc2-c2ccccc2)cc(OC)c1OC`, the TGI with SF-295 CNS is more than 100 µM; in the assay with MALME-3M melanoma, 96.9 µM; in the assay with SF-539 CNS, 58.7 µM; with NCI-H460 lung it was more than 100 µM; in the assay with UO-31 renal, more than 100 µM; with SW-620 colon, more than 100 µM. The TGI in the assay with A549 NSCLC and with MDA-N was more than 100 µM each time.
As to `CCOc1cc2c(cc1O)C(O)C[C@@H]1[C@@H]2CC[C@]2(C)[C@@H](O)CC[C@@H]12` (stereo not given in full), the TGI in the assay with MALME-3M melanoma is more than 100 µM; with SF-539 CNS, 3.6 µM; in the assay with UO-31 renal, more than 100 µM; in the assay on SW-620 colon, more than 100 µM; with K-562 leukemia, more than 36.4 µM; with A549 NSCLC, more than 100 µM. The TGI was more than 66 µM with MDA-MB-231 breast and 0.326 µM in the assay with MDA-N.
As for `CC1=CCC[C@H]2[C@](C)(CC3=CC(=O)C(SCC(C)C)=CC3=O)[C@@H](C)CC[C@]12C`, the TGI in the assay on SF-295 CNS stood at 34.6 µM; in the assay with SF-539 CNS, 33.2 µM; with NCI-H460 lung it was 31.5 µM; in the assay on UO-31 renal, 25.5 µM; with SW-620 colon, 51.7 µM; in the assay on K-562 leukemia it was 30.8 µM. In addition, the TGI in the assay on A549 NSCLC is 29.9 µM; in the assay with MDA-MB-231 breast it was more than 64 µM.
As for `O=[Se](O)O`, the TGI in the assay with SF-295 CNS is 1.7 µM; in the assay with MALME-3M melanoma, more than 100 µM; in the assay with SF-539 CNS, 2.56 µM; in the assay on NCI-H460 lung, more than 49.9 µM; in the assay on UO-31 renal, 7.36 µM; in the assay with SW-620 colon, more than 100 µM. Further, the TGI in the assay with K-562 leukemia is more than 100 µM; in the assay on A549 NSCLC, more than 100 µM; in the assay with MDA-MB-231 breast, 3.05 µM.
For the compound `S=C1SC(=Nc2ccccc2)C(=Nc2ccccc2)N1c1ccc2ccccc2c1`, the TGI with SF-295 CNS, in the assay with MALME-3M melanoma, in the assay with UO-31 renal, with K-562 leukemia, in the assay with MDA-MB-231 breast and with MDA-N was more than 100 µM each time.
